According to US4048007A, “Method of removing solvent residues from aqueous paper pulps” (The Dow Chemical Company, priority 1976, dated 1977):
Where two headings read alike, the source gives them in different places.

Tests used:
[1] = Henry's Law constant H of solvent in water; format: physicochemical; settings: for Henry's Law constant, H: Table I; for Value of H: Table II
Description: In a first or single stage, the incoming gas contains no solvent, yo is 0 and Em = y/y*. y is determined by analyzing a sample of the off-gas and y* can be calculated from the total vapor pressure P, the mole fraction (x) of the solvent in the liquid leaving the stage and H, the Henry's Law constant. That is, y*P (the partial pressure of the solvent) is equal to Hx, or y* = Hx/P.
For an aqueous solution of a sparingly soluble chlorinated hydrocarbon (for which Henry's law holds reasonably well over the full range of solubility up to saturation), H can be determined from the solvent solubility (c) in water and the vapor pressure (po) of the pure solvent, at a particular temperature; i.e., H = po /C. solubilities, vapor pressures and H values, at 20° C., are given below for three chlorinated hydrocarbon solvents.
The effect on H of operating at temperatures somewhat above or below […] is indicated in the following tabulation: […]

[2] = Air stripping of solvent from water (no fibers), time to strip 90% (Example 4); format: physicochemical; settings: 200 ml water, 5 g solvent, air stripped as in Example 2 (20° C., 2 cubic feet per minute)
Description: In a single tray apparatus similar to that in Example 1, air at 20° C. was passed at a rate of 2 cubic feet per minute through 200 ml. batches of various consistency aqueous Kraft pulps containing initially 1% by volume (2.0 ml, or […]) of dispersed perchloroethylene, C2 Cl4, which is very sparingly soluble in water (150 ppm). After 3 minutes, the residual weight of C2 Cl4 found was:
200 ml. batches of water (no fibers) containing 5 g. of solvent were stripped with air as in Example 2. The time required to strip 90% of the solvent was measured: […]

[3] = cited from earlier work
[4] = cited from earlier work; for Vapor Pressure of pure solvent: 20° C., Table I; for Vapor Pressure at 20° C.: Example 4
[5] = Dissolved solvent found in 0.5% Kraft pulp prepared with solvent-saturated water (Example 5); format: physicochemical; settings: 0.5% consistency Kraft pulp, water previously saturated with perchloroethylene
Description: A 0.5% consistency Kraft pulp suspension was prepared with water previously saturated with perchloroethylene.

Compound	Henry's Law constant, H ([1]; 20° C.) [mm Hg/ppm]	Time Required to strip out 90% [2] [s]	Solubility in water ([3]; 20° C., Table I)	Vapor Pressure of pure solvent [4] [mm Hg]	Vapor Pressure at 20° C. [4] [mm Hg]	Value of H ([1]; 15° C.) [mm Hg/ppm]	Value of H ([1]; 20° C.) [mm Hg/ppm]	Value of H ([1]; 25° C.) [mm Hg/ppm]	dissolved C2 Cl4 content of suspension [5] [ppm]	Solubility in water ([3]; Example 2, very sparingly soluble in water) [ppm]
CC(Cl)(Cl)Cl [1,1,1-Trichloroethane]	0.1429	32	700 ppm	100	100	–	–	–	–	–
ClCCl [Methylene Chlorine]	0.0241	9	13,900 ppm	–	340	0.0183	0.0241	0.0321	–	–
ClC(Cl)=C(Cl)Cl [Perchloroethylene, perchloroethylene]	0.1000	125	147 ppm	14.7	15	0.0760	0.1000	0.1267	176	150
